Data as given in US20010025105A1, “Certain substituted 1-aryl-3-piperazine-1'-yl propanones” (Molecular Geriatarics Corporation, priority 1997, published 2001).

Test system: TG3 immunoreactivity in OKA treated MSN1a cells
Experiment: MSN1a cell culture model, ELISA with TG3 antibody, okadaic acid treated cells
Format: cell-based, human
Conditions: 1 μM OKA, 2 hrs at 37° C., read-out: IC50 for inhibition of TG3 immunoreactivity in OKA treated MSN1a cells
Summary of the method: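 Human MSN1a neuroblastoma cells (2×10^4/well) in KRH pH 7.4 were exposed 2 h at 37 °C to 1 μM okadaic acid plus 0–64 μM compound (0.26% DMSO final). Lysates were coated onto ELISA plates and probed with TG3 and an alkaline phosphatase secondary. Absorbance was read at 405 nm with p-nitrophenyl phosphate substrate.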

In the case of `Cl.Cl.O=C(CCN1CCN(Cc2ccccc2)CC1)c1ccc(F)c2ccccc12` [Example 21, 1-(4″-Fluoronaphth-1″-yl)-3-(4′-benzyl-1′-piperazinyl)-1-propanone dihydrochloride], the IC50 is reported as 6.6 µM.
